# Values quoted from earlier work as cited in patent publication US8278066B2, “Truncated somatostatin receptors” (Board of Regents, The University of Texas System, priority 2001, dated 2012).
# Target: SSTR2 (Homo sapiens, UniProt P30874)
# Details: reported by Reisine et al. 1993; Raynor et al. 1993; cited from earlier work
# SSTR2, sequence (P30874 whole entry, species assumed): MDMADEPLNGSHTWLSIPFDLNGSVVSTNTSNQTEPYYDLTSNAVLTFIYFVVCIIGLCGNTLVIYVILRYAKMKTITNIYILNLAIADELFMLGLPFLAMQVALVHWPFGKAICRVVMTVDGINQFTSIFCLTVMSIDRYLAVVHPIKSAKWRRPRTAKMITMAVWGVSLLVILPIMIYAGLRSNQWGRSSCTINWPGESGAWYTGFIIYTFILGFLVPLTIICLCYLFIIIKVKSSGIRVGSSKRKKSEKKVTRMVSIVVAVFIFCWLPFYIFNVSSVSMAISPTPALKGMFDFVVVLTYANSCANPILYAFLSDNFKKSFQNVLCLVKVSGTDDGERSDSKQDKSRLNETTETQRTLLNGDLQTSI
smiles,measurement,value
C[C@@H](O)[C@@H]1NC(=O)[C@H](CCCCN)NC(=O)[C@@H](Cc2c[nH]c3ccccc23)NC(=O)[C@H](Cc2ccccc2)NC(=O)[C@@H](NC(=O)[C@H](N)Cc2ccccc2)CSSC[C@@H](C(=O)N[C@H](CO)[C@@H](C)O)NC1=O [octreotide],Receptor saturation,100 nM
